The source of these data is US20250295724A1, “COMPOSITION OF MALUS NIEDZWETZKYANA DIECK AND PRUNUS CERASIFERA EHRHART AND USE THEREOF IN TERMS OF RESISTING ATHEROSCLEROSIS” (priority 2023, published 2025).

The subject of assay [1] is high-fat diet induced ApoE-/-mice atherosclerosis model (aortic atherosclerotic plaque). The experiment in a line: Treatment of atherosclerosis: aortic plaque area in high-fat diet induced ApoE-/- mice, samples given for 4 weeks after 17 weeks of modeling. The class given is in vivo.
Description: (§1) Wild type C57 mice were used as a normal control group, rosuvastatin was used as a positive drug, and the efficacy (i.e., treating effect) of the composition samples in resisting atherosclerosis was investigated in a high-fat diet induced ApoE-/-mice atherosclerosis model. An atherosclerosis model was established after 17 weeks of modeling, and a control group was fed with a common feed for 17 weeks. The sample administration group was continuously administered with the test samples for 4 weeks after 17 weeks of modeling, and thereafter the formation of aortic atherosclerotic plaque in the mice was observed, and the plaque area was measured after dissection to calculate the plaque percentage.
(§2) Wild type C57 mice were used as a normal control group, rosuvastatin and atorvastatin were used as positive drugs, and the efficacy (i.e., treating effect) of the composition mixed samples in resisting atherosclerosis was investigated in a high-fat diet induced ApoE-/-mice atherosclerosis model. An atherosclerosis model was established after 17 weeks of modeling, and a control group was fed with a common feed for 17 weeks. The sample administration group was continuously administered with the test samples for 4 weeks after 17 weeks of modeling, and thereafter the formation of aortic atherosclerotic plaque in the mice was observed, and the plaque area was measured after dissection to calculate the plaque percentage.
as §2, with “aspirin, clopidogrel, colchicine” for “rosuvastatin”, “probucol” for “atorvastatin”
as §1, with “the” for “the composition”
as §1, with “mice were dissected,” for “plaque area was measured after dissection”, “area (percentage).” for “percentage.”

Assay [2] has the same test system. As to the kind of experiment: Prevention of atherosclerosis: aortic plaque area in high-fat diet induced ApoE-/- mice, samples given during 12 weeks of modeling. As to conditions: dose 1.67 mg/kg. The format is in vivo. The text has this:
An atherosclerosis model (namely, model group) was established after 12 weeks of modeling, and a control group (namely normal group) was fed with a common feed for 12 weeks. […] An atherosclerosis model (namely, model group) was established after 12 weeks of modeling, and a control group (namely normal group) was fed with a common feed for 12 weeks.

[3] abbreviates: Table 6, treatment, drug alone 16.7 mg/kg.
Setting [4] is: Table 5, treatment, drug alone 1.67 mg/kg.
Setting [5] is: Table 5, treatment, drug alone 3.33 mg/kg.
Where [6] appears, read: Table 6, treatment, drug alone 12.5 mg/kg.
The mark [7] stands for this setting: Table 6, treatment, drug alone 0.167 mg/kg.
Where [8] appears, read: Table 6, treatment, drug alone 83.5 mg/kg.
[9] abbreviates: Table 2, treatment, 4 weeks, dose 1.67 mg/kg.
[10] abbreviates: Table 4, treatment, 4 weeks, dose 1.67 mg/kg.
[11] abbreviates: Table 5, treatment, drug alone 0.83 mg/kg.
[12] abbreviates: Table 7, treatment, dose 1.67 mg/kg.
Where [13] appears, read: Table 8, treatment, dose 1.67 mg/kg.
The mark [14] stands for this setting: Table 9, treatment, dose 1.67 mg/kg.

SMILES strings stand for the structures. Marks after values point to notes of the source that are not given here.

As for `CC(=O)Oc1ccccc1C(=O)O` [aspirin], in assay [1] (setting [3]), the “Inhibition rate compared to the model %” value turned out to be 33.74% and the Plaque area % is reported as 29.91%*.

Consider `CC(C)c1c(C(=O)Nc2ccccc2)c(-c2ccccc2)c(-c2ccc(F)cc2)n1CC[C@@H](O)C[C@@H](O)CC(=O)O` [atorvastatin], for which, in assay [1] (setting [4]), the “Inhibition rate compared to the model %” value is listed as 18.76% and the Plaque area % was determined as 32.99%*. In assay [1] (setting [5]), the “Inhibition rate compared to the model %” value turned out to be 28.47% and the Plaque area % came out at 29.05%*.

Regarding `COC(=O)[C@H](c1ccccc1Cl)N1CCc2sccc2C1` [clopidogrel], in assay [1] (setting [6]), the “Inhibition rate compared to the model %” value is 32.76% and the Plaque area % came out at 30.35%*.

Take `COc1cc2c(c(OC)c1OC)-c1ccc(OC)c(=O)cc1[C@@H](NC(C)=O)CC2` [colchicine]: in assay [1] (setting [7]), the “Inhibition rate compared to the model %” value turned out to be 25.12% and the Plaque area % worked out at 33.80%*.

Take `CC(C)(Sc1cc(C(C)(C)C)c(O)c(C(C)(C)C)c1)Sc1cc(C(C)(C)C)c(O)c(C(C)(C)C)c1` [probucol]: in assay [1] (setting [8]), the “Inhibition rate compared to the model %” value stood at 21.91% and the Plaque area % amounted to 35.25%*.

For the compound `CC(C)c1nc(N(C)S(C)(=O)=O)nc(-c2ccc(F)cc2)c1/C=C/[C@@H](O)C[C@@H](O)CC(=O)O` [rosuvastain, rosuvastatin], the “Inhibition rate compared to the model %” value in assay [2] (Table 1, prevention) amounted to 36.61%; in assay [2] (Table 3, prevention) it was 30.61%; in assay [1] (setting [9]) it was 38.69%; in assay [1] (setting [10]), 34.77%; in assay [1] (setting [11]), 16.97%; in assay [1] (setting [4]), 31.40%. Moreover, the results for the “Inhibition rate compared to the model %” value in assay [1] (setting [12]), in assay [1] (setting [13]) and in assay [1] (setting [14]) were 34.77%, 38.69% and 42.69%, respectively. In addition, the Plaque area % came out at 20.93%** in assay [2] (Table 1, prevention); 24.82% in assay [2] (Table 3, prevention); 26.10%* in assay [1] (setting [9]); 25.87%** in assay [1] (setting [10]); 33.72%* in assay [1] (setting [11]); 27.86%* in assay [1] (setting [4]). Moreover, the Plaque area % in assay [1] (setting [12]) was 25.87%**; in assay [1] (setting [13]), 26.10%*; in assay [1] (setting [14]), 27.94%**.
